Data reported in ChEMBL document CHEMBL5550199, “Rational In Silico Design of Selective TMPRSS6 Peptidomimetic Inhibitors via Exploitation of the S2 Subpocket” (J Med Chem, 2024).
pIC50, pKi: −log10 of the molar value. In brackets after ≈: the same amount, converted by molar mass. Activity calls are given as the source filed them. The calls are words filed in the database; no cut-off is given here.

Legend:
[1] = target: T1, Transmembrane protease serine 6 (Homo sapiens, UniProt Q8IU80); assay: Binding affinity to recombinant human TMPRSS6 using Boc-QAR-AMC as substrate assessed as inhibition constant by fluorescence based analysis
T1 sequence (Q8IU80 whole entry): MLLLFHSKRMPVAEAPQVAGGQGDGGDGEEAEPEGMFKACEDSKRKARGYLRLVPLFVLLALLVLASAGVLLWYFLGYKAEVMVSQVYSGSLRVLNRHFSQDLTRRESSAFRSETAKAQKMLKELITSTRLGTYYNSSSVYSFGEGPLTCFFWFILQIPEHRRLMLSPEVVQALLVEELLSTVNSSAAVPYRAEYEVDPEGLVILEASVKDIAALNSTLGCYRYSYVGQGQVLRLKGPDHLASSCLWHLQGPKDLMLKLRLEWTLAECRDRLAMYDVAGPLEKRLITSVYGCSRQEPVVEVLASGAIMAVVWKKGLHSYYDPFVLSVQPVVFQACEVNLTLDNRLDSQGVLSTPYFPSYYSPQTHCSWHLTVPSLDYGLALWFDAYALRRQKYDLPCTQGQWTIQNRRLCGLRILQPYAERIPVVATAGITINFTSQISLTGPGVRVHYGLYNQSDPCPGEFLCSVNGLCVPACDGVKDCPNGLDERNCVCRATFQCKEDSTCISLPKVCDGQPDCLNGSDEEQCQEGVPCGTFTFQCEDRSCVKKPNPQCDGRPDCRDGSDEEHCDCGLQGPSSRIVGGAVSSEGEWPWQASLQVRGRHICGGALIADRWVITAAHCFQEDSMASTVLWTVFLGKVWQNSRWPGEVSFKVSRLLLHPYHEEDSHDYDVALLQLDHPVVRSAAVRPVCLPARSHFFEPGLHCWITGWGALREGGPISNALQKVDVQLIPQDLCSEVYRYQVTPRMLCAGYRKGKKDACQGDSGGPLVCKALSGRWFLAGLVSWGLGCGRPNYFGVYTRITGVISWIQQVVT

[2] = target: T2, Suppressor of tumorigenicity 14 protein (Homo sapiens, UniProt Q9Y5Y6); assay: Binding affinity to recombinant human Matriptase using Boc-QAR-AMC as substrate assessed as inhibition constant by fluorescence based analysis
T2 sequence (Q9Y5Y6 whole entry): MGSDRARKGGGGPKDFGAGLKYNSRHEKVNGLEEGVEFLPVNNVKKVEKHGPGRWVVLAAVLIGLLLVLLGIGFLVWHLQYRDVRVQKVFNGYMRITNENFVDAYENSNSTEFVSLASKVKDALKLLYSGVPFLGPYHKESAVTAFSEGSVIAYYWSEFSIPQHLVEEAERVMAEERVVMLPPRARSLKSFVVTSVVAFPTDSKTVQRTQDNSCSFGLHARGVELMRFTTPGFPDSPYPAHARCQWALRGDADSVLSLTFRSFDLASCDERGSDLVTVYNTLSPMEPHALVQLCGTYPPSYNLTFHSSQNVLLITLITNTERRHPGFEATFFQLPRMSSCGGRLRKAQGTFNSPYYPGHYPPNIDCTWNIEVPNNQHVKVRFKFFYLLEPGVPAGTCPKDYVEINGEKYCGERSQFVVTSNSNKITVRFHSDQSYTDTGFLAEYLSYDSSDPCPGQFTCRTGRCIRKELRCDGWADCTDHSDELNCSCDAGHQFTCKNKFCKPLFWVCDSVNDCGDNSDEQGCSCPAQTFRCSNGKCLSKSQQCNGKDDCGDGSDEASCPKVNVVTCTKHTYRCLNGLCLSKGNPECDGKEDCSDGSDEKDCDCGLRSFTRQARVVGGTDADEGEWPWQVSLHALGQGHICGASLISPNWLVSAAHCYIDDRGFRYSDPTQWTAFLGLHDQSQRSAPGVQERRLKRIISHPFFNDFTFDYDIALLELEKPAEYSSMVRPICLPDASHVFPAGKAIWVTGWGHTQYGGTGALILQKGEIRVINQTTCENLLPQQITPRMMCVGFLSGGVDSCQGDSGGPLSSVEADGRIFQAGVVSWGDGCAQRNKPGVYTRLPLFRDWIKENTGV

Homo sapiens [3] = organism: Homo sapiens; assay: (§1) Selectivity index, ratio of Ki for binding affinity to recombinant human Matriptase using Boc-QAR-AMC as substrate assessed as inhibition constant by fluorescence based analysis to Ki for binding affinity to recombinant human TMPRSS6 using Boc-QAR-AMC as substrate assessed as inhibition constant by fluorescence based analysis
[4] = target: T3, Transmembrane protease serine 6 (Homo sapiens) (UniProt Q8IU80); assay: Inhibition of recombinant human TMPRSS6 at 100 nM by Michaelis-Menten analysis relative to control
T3 sequence (whole entry): T1 sequence (Q8IU80 whole entry)

[5] = target: T4, Suppressor of tumorigenicity 14 protein (Homo sapiens) (UniProt Q9Y5Y6); assay: Inhibition of recombinant human Matriptase at 100 nM by Michaelis-Menten analysis relative to control
T4 sequence (whole entry): T2 sequence (Q9Y5Y6 whole entry)

[6] = target: T2, Suppressor of tumorigenicity 14 protein; assay: Competitive tight binding inhibition of recombinant human Matriptase using Boc-QAR-AMC as substrate assessed as inhibition constant by fluorescence based analysis
[7] = target: T1, Transmembrane protease serine 6; assay: Competitive tight binding inhibition of recombinant human TMPRSS6 using Boc-QAR-AMC as substrate assessed as inhibition constant by fluorescence based analysis
Homo sapiens [8] = organism: Homo sapiens; assay: as §1, with “for competitive tight” for “for”, “inhibition of” for “affinity to”
Prothrombin [9] = target: T5, Prothrombin (Homo sapiens, UniProt P00734); assay: Inhibition of recombinant human thrombin using Boc-QAR-AMC as substrate assessed as inhibition constant by fluorescence based analysis
Coagulation factor X [10] = target: T6, Coagulation factor X (Homo sapiens, UniProt P00742); assay: Inhibition of recombinant human FXA using Boc-QAR-AMC as substrate assessed as inhibition constant by fluorescence based analysis
Furin [11] = target: T7, Furin (Homo sapiens, UniProt P09958); assay: Inhibition of recombinant human furin using Boc-RVRR-AMC as substrate assessed as inhibition constant by fluorescence based analysis
Prothrombin [12] = target: T5, Prothrombin; assay: Inhibition of thrombin (unknown origin)
Coagulation factor X [13] = target: T6, Coagulation factor X; assay: Inhibition of FXA (unknown origin)
Furin [14] = target: T7, Furin; assay: Inhibition of furin (unknown origin)
[15] = Cytotoxicity against HEK cells assessed as reduction in cell viability measured for 24 hrs by celltiter-glo 2.0 assay; format: toxicity, cell-based; details: human
[16] = target: T1, Transmembrane protease serine 6; assay: Inhibition of human TMPRSS6 transfected in HEK293SL cells using Boc-QAR-AMC as substrate measured for 24 hrs; format: cell-based
[17] = target: T2, Suppressor of tumorigenicity 14 protein; assay: Inhibition of human Matriptase transfected in HEK293SL cells using Boc-QAR-AMC as substrate measured for 24 hrs; format: cell-based
Homo sapiens [18] = organism: Homo sapiens; assay: Selectivity index, ratio of IC50 for inhibition of human Matriptase transfected in HEK293SL cells using Boc-QAR-AMC as substrate to IC50 for inhibition of human TMPRSS6 transfected in HEK293SL cells using Boc-QAR-AMC as substrate; format: cell-based
[19] = Solubility of compound in PBS at pH 7.4 measured for 90 mins by UPLC analysis; format: physicochemical; details: buffer, pH 7.4, 1.5 h
[20] = Stability in Sprague-Dawley rat plasma assessed as parent compound remaining at 24 hrs by UPLC-MS analysis; format: ADME, cell-free
[21] = Metabolic stability in Sprague-Dawley rat microsome assessed as half life measured for 120 mins in presence of NADPH by UPLC-MS analysis; format: ADME; details: microsomes, 2 h
[22] = Metabolic stability in Sprague-Dawley rat microsome assessed as intrinsic clearance measured for 120 mins in presence of NADPH by UPLC-MS analysis; format: ADME; details: microsomes, 2 h
[23] = Apparent Permeability of compound in PBS buffer at pH 7.4 incubated for 17 hrs by PAMPA assay; format: ADME; details: pH 7.4, 17 h
Caco-2 [24] = assay: Disruption of epithelial integrity in human Caco-2 cells assessed as change in TEER modulation after 8 days; format: functional, cell-based; details: Caco-2, 192 h
Caco-2 [25] = assay: Disruption of epithelial integrity in human Caco-2 cells assessed as change in TEER modulation at 10 uM after 8 days; format: functional, cell-based; details: time 8.0 day

T7 sequence (P09958 whole entry): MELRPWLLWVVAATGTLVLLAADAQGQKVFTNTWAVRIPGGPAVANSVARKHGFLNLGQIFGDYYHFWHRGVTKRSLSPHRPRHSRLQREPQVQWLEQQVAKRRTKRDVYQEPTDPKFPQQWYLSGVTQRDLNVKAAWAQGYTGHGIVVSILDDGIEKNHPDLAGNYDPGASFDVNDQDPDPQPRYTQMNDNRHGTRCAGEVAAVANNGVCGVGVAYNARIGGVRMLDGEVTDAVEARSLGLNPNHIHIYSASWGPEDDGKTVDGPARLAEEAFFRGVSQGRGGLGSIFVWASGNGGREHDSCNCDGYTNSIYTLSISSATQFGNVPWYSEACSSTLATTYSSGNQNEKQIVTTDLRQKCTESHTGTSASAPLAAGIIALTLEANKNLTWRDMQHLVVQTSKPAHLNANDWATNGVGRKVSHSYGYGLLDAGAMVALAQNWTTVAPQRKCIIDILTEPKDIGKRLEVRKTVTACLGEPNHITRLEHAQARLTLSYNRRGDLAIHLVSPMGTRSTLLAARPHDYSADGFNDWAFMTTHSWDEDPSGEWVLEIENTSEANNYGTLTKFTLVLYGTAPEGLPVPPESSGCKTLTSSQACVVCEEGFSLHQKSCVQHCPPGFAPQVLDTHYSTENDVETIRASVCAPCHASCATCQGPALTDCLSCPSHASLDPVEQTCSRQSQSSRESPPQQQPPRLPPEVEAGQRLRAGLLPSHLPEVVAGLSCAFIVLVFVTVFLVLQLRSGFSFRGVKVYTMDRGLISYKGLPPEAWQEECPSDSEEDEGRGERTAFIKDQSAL
T6 sequence (P00742 41-179 limits assumed): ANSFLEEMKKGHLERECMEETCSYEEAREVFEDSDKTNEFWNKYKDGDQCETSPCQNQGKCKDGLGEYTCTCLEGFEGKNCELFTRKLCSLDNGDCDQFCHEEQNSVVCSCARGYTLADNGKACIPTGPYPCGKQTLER
T6 sequence (P00742 235-488 limits assumed): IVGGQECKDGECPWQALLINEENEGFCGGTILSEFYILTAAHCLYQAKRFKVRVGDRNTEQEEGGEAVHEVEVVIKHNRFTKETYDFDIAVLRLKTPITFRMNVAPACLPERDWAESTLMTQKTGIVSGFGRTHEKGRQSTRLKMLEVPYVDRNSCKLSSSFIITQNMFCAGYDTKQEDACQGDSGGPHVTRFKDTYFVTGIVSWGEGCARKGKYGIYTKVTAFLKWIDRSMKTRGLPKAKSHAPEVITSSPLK

- pKi [1]: 8.92
- pKi [2]: 8.07
- Ratio Ki (Homo sapiens [3]): 7.2
- inhibition [4]: 1%
- inhibition [5]: 5%
- pKi [6]: 8.32
- pKi [7]: 9.22
- Ratio Ki (Homo sapiens [8]): 8
- pKi (Prothrombin [9]): 7.28
- pKi (Coagulation factor X [10]): 5.64
- pKi (Furin [11]): < 5.00
- pKi (Prothrombin [12]): 5.96
- pKi (Coagulation factor X [13]): 6.49
- pKi (Furin [14]): < 4.52
- pIC50 [16]: 8.36
- pIC50 [17]: 7.74
- solubility [19]: 250 µM (≈ 169 µg/mL)
- Stability [20]: 6%
- t1/2 [21]: > 2 h
- CLH [22]: 1.12 µL/min/mg
- Papp [23]: 0.004 10^-6 cm/s
- pIC50 (Caco-2 [24]): 7.74
Structure (SMILES): CC(C)[C@H](NC(=O)[C@H](Cc1cscn1)NC(=O)CCc1ccccc1)C(=O)N[C@@H](CCCNC(=N)N)C(=O)c1nc2ccccc2s1
- Activity [15]: Non-Toxic
- Ratio IC50 (Homo sapiens [18]): 4
- Activity (Caco-2 [25]): Active
